Measured values: patent US20070203066A1, “Compositions and methods for inhibiting cellular proliferation” (priority 2005, published 2007)
Read-outs that look alike come from different tables or passages of the source. Positions of bridges follow the written chain, without caps; N, C: chain ends. Residues, ends and D or L forms follow the SMILES beside them. Chains are numbered I, II in the order given. No end group written: not given here. Ida = iminodiacetic acid linker, its two carboxyls bind the Lys side-chain amines of two peptides, giving a homodimer

How the values were obtained:
HUVECs = type: cell-based
Method in brief: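 HUVECs seeded at 5,000 cells/well in EBM with 2% FCS, adhered ≥12 hours, then stimulated with bFGF 10 ng/ml or VEGF 5 ng/ml plus varying peptide concentrations. After 48 hours at 37 ° C, 5% CO2, proliferation inhibition read by BrdU incorporation.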

MDA-MB-231 cells = assay: Proliferation assay of tumor cells (BrdU incorporation), MDA-MB-231; type: cell-based; details: MDA-MB-231 proliferation, 48 hours, read-out: Inhibitory Activity (IC50 uM) MDA-MB-231
Protocol: (§1) The antiproliferative activity of selected peptides of the present invention was assessed on several tumor cell lines. Mouse Lewis lung carcinoma (LLC) cells were routinely cultured to near confluency in DMEM media with 10% FCS added. The cells were trypsinized and plated in a 96-well plate at 5,000 cells per well per 100 μl media supplemented with 2% FCS and antibiotics. MDA-MB-231 cells were routinely cultured to near confluency in advanced DMEM media supplemented with 10% FCS. The cells were allowed to adhere to the plate for at least 12 hours. Then, whole media and various concentrations of peptide, were added to the wells. The cells were cultured for 48 hours at 37 ° C. in a 5% CO2 atmosphere. Cell proliferation was determined using a bromo-deoxyuridine (BrdU) incorporation method as described by the manufacturer. Inhibition of cell proliferation, was assessed by BrdU incorporation.
(§2) The ability of representative peptides of this invention for their ability to inhibit various tumor cells line proliferation are listed below in Table 2.

[1] = tested on: Mouse Lewis lung carcinoma (LLC) cells; assay: Proliferation assay of tumor cells (BrdU incorporation), LLC; type: cell-based; details: 48 hours, read-out: Inhibitory Activity (IC50 uM) LLC
Protocol: as §1, §2

[2] = tested on: bFGF-induced angiogenesis in Matrigel plugs; assay: Murine Matrigel plug angiogenesis assay; type: in vivo, C57B1/6 mice; details: 10-12 days of treatment, hemoglobin in plugs vs +bFGF/Buffer control
Protocol: In order to assess the effect of the peptides in this invention on angiogenesis, an additional assay was used to assess antiangiogenic activity.
Briefly, Matrigel (BD Biosciences, San Jose, Calif.) is mixed with 0.5 μg/ml of bFGF. 0.5 ml of this Matrigel/bFGF mixture is then injected subcutaneously on the ventral abdominal surface at the level of the xiphoid process of C57B1/6 mice. Matrigel plugs, injected in absence of bFGF addition, are used as negative controls. Treatment with various peptides is initiated 12-18 hours later. Animals are treated by i.p. administration of peptides, dosed at 0.2mg/d of peptide dimers, and 1.4 mg/d of Pegylated peptide dimers. After 10-12 days of treatment, animals are euthanized, and the Matrigel plugs are surgically removed, and cleaned of mouse tissue, fascia, and fat. […] After centrifugation, supernatant for each plug is assayed for the presence of Hemoglobin using a Serum Hemoglobin analysis kit (Sigma Diagnostics, St. Louis, Mo.). Angiogenesis is defined as the fold increase of hemoglobin in the buffer control treated mouse Matrigel plugs, above the amount of hemoglobin in negative (−bFGF) control Matrigel plugs. For experimental peptide treated animals, the percent inhibition is defined as the inhibition seen when comparing positive control plugs (+bFGF/ Buffer treatment) with peptide treated plugs (+bFGF/ Peptide treatment).

[3] = HUVEC proliferation, bFGF at 10 ng/ml or VEGF at 5 ng/ml, 48 hours, BrdU incorporation, read-out: IC50 on HUVECs
[4] = Pegylated peptide dimers, i.p. 1.4 mg/d

| Molecule | IC50 (MDA-MB-231 cells) [µM] | IC50 [1] [µM] | IC50 (HUVECs; 48 h) [µM] | IC50 (HUVECs; [3]) [µM] | Matrigel Model % Inhibition [2, 4] [%] | Matrigel Model % Inhibition ([2]; peptide dimers, i.p. 0.2mg/d) [%] |
| --- | --- | --- | --- | --- | --- | --- |
| CC[C@H](C)[C@H](NC(=O)[C@H](C)NC(=O)[C@@H](NC(=O)[C@H](CCCNC(=N)N)NC(=O)[C@H](CCC(N)=O)NC(=O)[C@H](CCCNC(=N)N)NC(=O)[C@H](C)NC(=O)[C@H](Cc1c[nH]cn1)NC(=O)[C@H](CCCNC(=N)N)NC(=O)[C@H](C)NC(C)=O)C(C)C)C(=O)N[C@H](C(=O)N[C@@H](Cc1ccccc1)C(=O)NCCCC[C@H](NC(=O)[C@H](Cc1ccccc1)NC(=O)[C@@H](NC(=O)[C@@H](NC(=O)[C@H](C)NC(=O)[C@@H](NC(=O)[C@H](CCCNC(=N)N)NC(=O)[C@H](CCC(N)=O)NC(=O)[C@H](CCCNC(=N)N)NC(=O)[C@H](C)NC(=O)[C@H](Cc1c[nH]cn1)NC(=O)[C@H](CCCNC(=N)N)NC(=O)[C@H](C)NC(C)=O)C(C)C)[C@@H](C)CC)[C@@H](C)CC)C(N)=O)[C@@H](C)CC [Peptide 214] (I: Ac-ARHARQRVAIIFK-NH2 / II: Ac-ARHARQRVAIIF; amide I:13-II:C) | > 30 | > 30 | > 30 | – | – | – |
| 375 (Ac-RRRRRQRVRIIFK-NH2; not fully specified (residue 13); also: homodimer via Ida-PEG 30 kDa linker on Lys13 side chain) [compound 375] | – | – | – | < 10 | 46.0 | – |
| 228 (Ac-ARRRRQRVAIYFK; also: homodimer via Ida linker on side chain of Lys13) [compound 228] | – | – | – | < 10 | – | 55.0 |
| 315 (Ac-ARRRRQAVAIYFK(Ida)-NH2; also: homodimer via Ida linker on Lys13 side chain) [compound 315] | – | – | – | < 10 | – | 52.0 |
| 381 (Ac-ARRRRQAVAIYFK-NH2; not fully specified (residue 13); also: homodimer via Ida-PEG 30 kDa linker on Lys13 side chain) [compound 381] | – | – | – | < 10 | 51.0 | – |

Continued, in another order:

| IC50 (MDA-MB-231 cells) [µM] | IC50 [1] [µM] | Molecule | IC50 (HUVECs; 48 h) [µM] | IC50 (HUVECs; [3]) [µM] | Matrigel Model % Inhibition [2, 4] [%] | Matrigel Model % Inhibition ([2]; peptide dimers, i.p. 0.2mg/d) [%] |
| --- | --- | --- | --- | --- | --- | --- |
| < 10 | < 10 | CC[C@H](C)[C@H](NC(=O)[C@H](CCCNC(=N)N)NC(=O)[C@@H](NC(=O)[C@H](Cc1c[nH]cn1)NC(=O)[C@H](CCC(N)=O)NC(=O)[C@H](CCCNC(=N)N)NC(=O)[C@H](Cc1c[nH]cn1)NC(=O)[C@H](CCCNC(=N)N)NC(=O)[C@H](CCCNC(=N)N)NC(=O)[C@H](CCCNC(=N)N)NC(C)=O)C(C)C)C(=O)N[C@H](C(=O)N[C@@H](Cc1ccccc1)C(=O)NCCCC[C@H](NC(=O)[C@H](Cc1ccccc1)NC(=O)[C@@H](NC(=O)[C@@H](NC(=O)[C@H](CCCNC(=N)N)NC(=O)[C@@H](NC(=O)[C@H](Cc1c[nH]cn1)NC(=O)[C@H](CCC(N)=O)NC(=O)[C@H](CCCNC(=N)N)NC(=O)[C@H](Cc1c[nH]cn1)NC(=O)[C@H](CCCNC(=N)N)NC(=O)[C@H](CCCNC(=N)N)NC(=O)[C@H](CCCNC(=N)N)NC(C)=O)C(C)C)[C@@H](C)CC)[C@@H](C)CC)C(N)=O)[C@@H](C)CC [Peptide 244] (I: Ac-RRRHRQHVRIIFK-NH2 / II: Ac-RRRHRQHVRIIF; amide I:13-II:C) | < 10 | – | – | – |
| < 10 | < 10 | CC[C@H](C)[C@H](NC(=O)[C@H](CCCNC(=N)N)NC(=O)[C@@H](NC(=O)[C@H](CCCNC(=N)N)NC(=O)[C@H](CCC(N)=O)NC(=O)[C@H](CCCNC(=N)N)NC(=O)[C@H](CCCNC(=N)N)NC(=O)[C@H](CCCNC(=N)N)NC(=O)[C@H](CCCNC(=N)N)NC(=O)[C@@H](N)CCCNC(=N)N)C(C)C)C(=O)N[C@H](C(=O)N[C@@H](Cc1ccccc1)C(=O)NCCCC[C@H](NC(=O)[C@H](Cc1ccccc1)NC(=O)[C@@H](NC(=O)[C@@H](NC(=O)[C@H](CCCNC(=N)N)NC(=O)[C@@H](NC(=O)[C@H](CCCNC(=N)N)NC(=O)[C@H](CCC(N)=O)NC(=O)[C@H](CCCNC(=N)N)NC(=O)[C@H](CCCNC(=N)N)NC(=O)[C@H](CCCNC(=N)N)NC(=O)[C@H](CCCNC(=N)N)NC(=O)[C@@H](N)CCCNC(=N)N)C(C)C)[C@@H](C)CC)[C@@H](C)CC)C(N)=O)[C@@H](C)CC [Peptide 132] (I: H-RRRRRQRVRIIFK-NH2 / II: H-RRRRRQRVRIIF; amide I:13-II:C; N-terminus assumed) | < 10 | – | – | – |
| < 10 | < 10 | CC[C@H](C)[C@H](NC(=O)[C@H](CCCNC(=N)N)NC(=O)[C@@H](NC(=O)[C@H](CCCNC(=N)N)NC(=O)[C@H](CCC(N)=O)NC(=O)[C@H](CCCNC(=N)N)NC(=O)[C@H](Cc1c[nH]cn1)NC(=O)[C@H](Cc1c[nH]cn1)NC(=O)[C@H](CCCNC(=N)N)NC(=O)[C@H](CCCNC(=N)N)NC(C)=O)C(C)C)C(=O)N[C@H](C(=O)N[C@@H](Cc1ccccc1)C(=O)NCCCC[C@H](NC(=O)[C@H](Cc1ccccc1)NC(=O)[C@@H](NC(=O)[C@@H](NC(=O)[C@H](CCCNC(=N)N)NC(=O)[C@@H](NC(=O)[C@H](CCCNC(=N)N)NC(=O)[C@H](CCC(N)=O)NC(=O)[C@H](CCCNC(=N)N)NC(=O)[C@H](Cc1c[nH]cn1)NC(=O)[C@H](Cc1c[nH]cn1)NC(=O)[C@H](CCCNC(=N)N)NC(=O)[C@H](CCCNC(=N)N)NC(C)=O)C(C)C)[C@@H](C)CC)[C@@H](C)CC)C(N)=O)[C@@H](C)CC [Peptide 240] (I: Ac-RRHHRQRVRIIFK-NH2 / II: Ac-RRHHRQRVRIIF; amide I:13-II:C) | < 10 | – | – | – |
